The target of the assay is T1, TLR7 (Homo sapiens, UniProt Q9NYK1).
T1 construct: Fresh blood was collected from normal human donors; endogenous in cells; host or cells: human PBMCs from fresh donor blood
T1 sequence (Q9NYK1 27-1049): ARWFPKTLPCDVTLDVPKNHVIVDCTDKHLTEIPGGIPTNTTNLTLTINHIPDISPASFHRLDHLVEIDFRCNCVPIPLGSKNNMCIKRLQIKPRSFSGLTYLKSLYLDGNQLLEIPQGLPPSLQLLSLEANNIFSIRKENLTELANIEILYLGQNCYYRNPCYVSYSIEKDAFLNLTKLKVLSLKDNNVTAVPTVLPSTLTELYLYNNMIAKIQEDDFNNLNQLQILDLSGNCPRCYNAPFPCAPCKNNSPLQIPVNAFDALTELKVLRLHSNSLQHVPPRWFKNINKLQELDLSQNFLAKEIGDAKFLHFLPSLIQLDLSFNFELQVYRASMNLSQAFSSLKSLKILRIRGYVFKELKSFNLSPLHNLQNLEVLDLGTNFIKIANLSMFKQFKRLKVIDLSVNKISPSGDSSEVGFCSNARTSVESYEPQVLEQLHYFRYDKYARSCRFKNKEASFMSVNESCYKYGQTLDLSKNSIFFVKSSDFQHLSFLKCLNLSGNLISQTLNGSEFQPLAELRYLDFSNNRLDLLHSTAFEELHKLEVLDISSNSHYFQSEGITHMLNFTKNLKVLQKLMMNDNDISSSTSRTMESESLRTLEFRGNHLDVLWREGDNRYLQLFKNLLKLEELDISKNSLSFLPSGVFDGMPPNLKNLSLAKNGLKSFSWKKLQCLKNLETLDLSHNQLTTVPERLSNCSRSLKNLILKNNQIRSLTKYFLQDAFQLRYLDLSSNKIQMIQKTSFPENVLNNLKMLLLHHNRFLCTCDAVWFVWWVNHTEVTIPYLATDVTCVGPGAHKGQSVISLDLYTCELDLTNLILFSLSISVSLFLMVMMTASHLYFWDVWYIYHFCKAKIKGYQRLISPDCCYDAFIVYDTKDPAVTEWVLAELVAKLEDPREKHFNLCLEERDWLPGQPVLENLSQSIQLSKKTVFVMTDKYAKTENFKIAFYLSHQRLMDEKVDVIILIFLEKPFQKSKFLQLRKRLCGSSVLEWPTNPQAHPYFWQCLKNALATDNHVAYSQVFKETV
As to the kind of experiment: huPBMC TLR7 Antagonist IFNα Assay. The class given is cell-based. Conditions: human PBMCs stimulated with ssRNA40 10 μg/mL (DOTAP), 14-16 hrs; IFNα2b AlphaLISA read-out. The essentials:
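Human PBMCs from fresh donor blood (150,000 cells/well) stimulated 14–16 h at 37 °C with DOTAP-complexed ssRNA40 (final 1 μg/ml for TLR8, 10 μg/mL for TLR7) or ODN2216 (final 0.3 μM, TLR9), 0.25% DMSO, ten-point 1/3 compound dilutions. Supernatant IL-6 read by HTRF (TLR8); IFNα by IFNα2b AlphaLISA (TLR7/TLR9).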

SMILES strings stand for the structures.

For `Cc1cc(N2CCc3c(c(C)nn3CC34CCC(NC(=O)OC(C)(C)C)(CC3)CC4)C2)c2ccncc2n1` [Compound No. 147, tert-butyl (4-((3-methyl-5-(2-methyl-1,7-naphthyridin-4-yl)-4,5,6,7-tetrahydro-1H-pyrazolo[4,3-c]pyridin-1-yl)methyl)bicyclo[2.2.2]octan-1-yl)carbamate], the concentration for half-maximal inhibition (IC50) is 33 nM.
Take `Cn1ncc2c(N3CCc4c(cnn4CC45CCC(N)(CC4)CC5)C3)nc(N)nc21` [compound 11, 4-(1-((4-aminobicyclo[2.2.2]octan-1-yl)methyl)-6,7-dihydro-1H-pyrazolo[4,3-c]pyridin-5(4H)-yl)-1-methyl-1H-pyrazolo[3,4-d]pyrimidin-6-amine]: the IC50 was determined as 318 nM.
`Cn1ncc2c(N3CCc4nn(CC56CCC(N)(CC5)CC6)cc4C3)nc(N)nc21` [compound 12, 4-(2-((4-aminobicyclo[2.2.2]octan-1-yl)methyl)-6,7-dihydro-2H-pyrazolo[4,3-c]pyridin-5(4H)-yl)-1-methyl-1H-pyrazolo[3,4-d]pyrimidin-6-amine]: the half-maximal inhibitory concentration (IC50) turned out to be 841 nM.
In the case of `Cc1nn(CC23CCC(N)(CC2)CC3)c2c1CN(c1nc(N)nc3c1cnn3C)CC2` [compound 13, 4-(1-((4-aminobicyclo[2.2.2]octan-1-yl)methyl)-3-methyl-6,7-dihydro-1H-pyrazolo[4,3-c]pyridin-5(4H)-yl)-1-methyl-1H-pyrazolo[3,4-d]pyrimidin-6-amine], the IC50 stood at 42 nM.
On to `Cc1c2c(nn1CC13CCC(N)(CC1)CC3)CCN(c1nc(N)nc3c1cnn3C)C2` [compound 14, 4-(2-((4-aminobicyclo[2.2.2]octan-1-yl)methyl)-3-methyl-6,7-dihydro-2H-pyrazolo[4,3-c]pyridin-5(4H)-yl)-1-methyl-1H-pyrazolo[3,4-d]pyrimidin-6-amine], for which the IC50 stood at 241 nM.
With `Cc1nn(CC23CCC(N)(CC2)CC3)c2c1CN(c1nc(Cl)nc3cnn(C)c13)CC2` [compound 15, 4-((5-(5-chloro-1-methyl-1H-pyrazolo[4,3-d]pyrimidin-7-yl)-3-mehtyl-4,5,6,7-tetrahydro-1H-pyrazolo[4,3-c]pyridin-1-yl)methyl)bicyclo[2.2.2]octan-1-amine], the half-inhibitory concentration (IC50) amounted to 288 nM.
For the compound `Cc1nc(N2CCc3c(c(C)nn3CC34CCC(N5CCCC5)(CC3)CC4)C2)c2cnn(C)c2n1` [compound 16, 1,6-dimethyl-4-(3-methyl-1-((4-(pyrrolidin-1-yl)bicyclo[2.2.2]octan-1-yl)methyl)-6,7-dihydro-1H-pyrazolo[4,3-c]pyridin-5(4H)-yl)-1H-pyrazolo[3,4-d]pyrimidine], the IC50 amounted to 25 nM.
As to `Cc1nc(N2CCc3c(c(C)nn3CC34CCC(N5CCCC5)(CC3)CC4)C2)c2c(n1)c(C)nn2C` [compound 17, 1,3,5-trimethyl-7-(3-methyl-1-((4-(pyrrolidin-1-yl)bicyclo[2.2.2]octan-1-yl)methyl)-6,7-dihydro-1H-pyrazolo[4,3-c]pyridin-5(4H)-yl)-1H-pyrazolo[4,3-d]pyrimidine], the half-maximal inhibitory concentration (IC50) was 258 nM.
Turning to `COCCNC12CCC(Cn3nc(C)c4c3CCN(c3nc(C)nc5c(C)nn(C)c35)C4)(CC1)CC2` [compound 18, N-(2-methoxyethyl)-4-((3-methyl-5-(1,3,5-trimethyl-1H-pyrazolo[4,3-d]pyrimidin-7-yl)-4,5,6,7-tetrahydro-1H-pyrazolo[4,3-c]pyridin-1-yl)methyl)bicyclo[2.2.2]octan-1-amine], the IC50 amounted to 245 nM.
Then `Cc1nc(N2CCc3c(c(C)nn3CC34CCC(N5CCOCC5)(CC3)CC4)C2)c2cnn(C)c2n1` [compound 19, 4-(4-((5-(1,6-dimethyl-1H-pyrazolo[3,4-d]pyrimidin-4-yl)-3-methyl-4,5,6,7-tetrahydro-1H-pyrazolo[4,3-c]pyridin-1-yl)methyl)bicyclo[2.2.2]octan-1-yl)morpholine], with 55 nM; and `CCNCC(=O)NC12CCC(Cn3nc(C)c4c3CCN(c3nc(C)nc5[nH]ncc35)C4)(CC1)CC2` [compound 20, 2-(ethylamino)-N-(4-((3-methyl-5-(6-methyl-1H-pyrazolo[3,4-d]pyrimidin-4-yl)-4,5,6,7-tetrahydro-1H-pyrazolo[4,3-c]pyridin-1-yl)methyl)bicyclo[2.2.2]octan-1-yl)acetamide], with 25 nM.
Then `Cc1nc(N2CCc3c(c(C)nn3CC34CCC(N5CCOCC5)(CC3)CC4)C2)c2cn[nH]c2n1` [compound 21, 4-(4-((3-methyl-5-(6-methyl-1H-pyrazolo[3,4-d]pyrimidin-4-yl)-4,5,6,7-tetrahydro-1H-pyrazolo[4,3-c]pyridin-1-yl)methyl)bicyclo[2.2.2]octan-1-yl)morpholine], with 24 nM; and `CCNCC(=O)NC12CCC(Cn3nc(C)c4c3CCN(c3nc(C)nc5c(C)nn(C)c35)C4)(CC1)CC2` [compound 22, 2-(ethylamino)-N-(4-((3-methyl-5-(1,3,5-trimethyl-1H-pyrazolo[4,3-c]pyrimidin-7-yl)-4,5,6,7-tetrahydro-1H-pyrazolo[4,3-c]pyridin-1-yl)methyl)bicyclo[2.2.2]octan-1-yl)acetamide], with 33 nM; and `Cc1nc(N2CCc3c(c(C)nn3CC34CCC(NCC5COC5)(CC3)CC4)C2)c2c(n1)c(C)nn2C` [compound 23, 4-((3-methyl-5-(1,3,5-trimethyl-1H-pyrazolo[4,3-c]pyrimidin-7-yl)-4,5,6,7-tetrahydro-1H-pyrazolo[4,3-c]pyridin-1-yl)methyl)-N-(oxetan-3-ylmethyl)bicyclo[2.2.2]octan-1-amine], with 666 nM.
On to `Cc1nc(N2CCc3c(c(C)nn3CC34CCC(NC(=O)CCN(C)C)(CC3)CC4)C2)c2c(n1)c(C)nn2C` [compound 24, 3-(dimethyalmino)-N-(4-((3-methyl-5-(1,3,5-trimethyl-1H-pyrazolo[4,3-d]pyrimidin-7-yl)-4,5,6,7-tetrahydro-1H-pyrazolo[4,3-c]pyridin-1-yl)methyl)bicyclo[2.2.2]octan-1-yl)propanamide], for which the half-maximal inhibitory concentration (IC50) amounted to 201 nM.
For `Cc1nc(N2CCc3c(c(C)nn3CC34CCC(N5CCOCC5)(CC3)CC4)C2)c2c(n1)c(C)nn2C` [compound 25, 4-(4-((3-methyl-5-(1,3,5-trimethyl-1H-pyrazolo[4,3-d]pyrimidin-7-yl)-4,5,6,7-tetrahydro-1H-pyrazolo[4,3-c]pyridin-1-yl)methyl)bicyclo[2.2.2]octan-1-yl)morpholine], the IC50 worked out at 565 nM.
On to `Cc1nc(N2CCc3c(c(C)nn3CC34CCC(NC5CCC5)(CC3)CC4)C2)c2c(n1)c(C)nn2C` [compound 27, N-cyclobutyl-4-((3-methyl-5-(1,3,5-trimethyl-1H-pyrazolo[4,3-d]pyrimidin-7-yl)-4,5,6,7-tetrahydro-1H-pyrazolo[4,3-c]pyridin-1-yl)methyl)bicyclo[2.2.2]octan-1-amine], for which the IC50 is 15 nM.
Regarding `Cc1nc(N2CCc3c(c(C)nn3CC34CCC(N(C5CCC5)C5CCC5)(CC3)CC4)C2)c2c(n1)c(C)nn2C` [compound 28, N,N-dicyclobutyl-4-((3-methyl-5-(1,3,5-trimethyl-1H-pyrazolo[4,3-d]pyrimidin-7-yl)-4,5,6,7-tetrahydro-1H-pyrazolo[4,3-c]pyridin-1-yl)methyl)bicyclo[2.2.2]octan-1-amine], the half-maximal inhibitory concentration (IC50) amounted to 840 nM.
With `Cc1nc(N2CCc3c(c(C)nn3CC34CCC(N5CCCCC5)(CC3)CC4)C2)c2cn[nH]c2n1` [compound 29, 6-methyl-4-(3-methyl-1-((4-(piperidin-1-yl)bicyclo[2.2.2]octan-1-yl)methyl)-6,7-dihydro-1H-pyrazolo[4,3-c]pyridin-5(4H)-yl)-1H-pyrazolo[3,4-d]pyrimidine], the half-maximal inhibitory concentration (IC50) worked out at 73 nM.
In the case of `Cc1nc(N2CCc3c(c(C)nn3CC34CCC(N5CCCC5)(CC3)CC4)C2)c2cn[nH]c2n1` [compound 30, 6-methyl-4-(3-methyl-1-((4-(pyrrolidin-1-yl)bicyclo[2.2.2]octan-1-yl)methyl)-6,7-dihydro-1H-pyrazolo[4,3-c]pyridin-5(4H)-yl)-1H-pyrazolo[3,4-d]pyrimidine], the 50% inhibitory concentration (IC50) came out at 10 nM.

The IC50 is the point on the concentration scale where inhibition reaches its midpoint.

The record behind these values is patent publication US20240376099A1, “COMPOUNDS AND COMPOSITIONS AS INHIBITORS OF ENDOSOMAL TOLL-LIKE RECEPTORS” (Novartis AG, priority 2016, published 2024).
